Laboratory results reported in ChEMBL document CHEMBL1201862, “PubChem BioAssay data set” (2004).
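Method: 48-hour compound exposure of cells in 96-well plates, five concentrations, linear interpolation of endpoints. Here, GI50 denotes the concentration required for 50% inhibition of growth.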 Activity calls are given as the source filed them. No stated cut-off is given here; in the data, active = GI50 up to about 1.1 µM and inactive = higher.

Columns and labels:
Assay in all cases: NCI anticancer screen, dose series, 48 h
786-0 = tested on: 786-0
A549 = tested on: A549
ACHN = tested on: ACHN
BT-549 = tested on: BT-549
DLD-1 = tested on: DLD-1
DMS-273 = tested on: DMS-273
DU-145 = tested on: DU-145
EKVX = tested on: EKVX
HCC 2998 = tested on: HCC 2998
HCT-116 = tested on: HCT-116
HCT-15 = tested on: HCT-15
HOP-18 = tested on: HOP-18
HT-29 = tested on: HT-29
Hs-578T = tested on: Hs-578T
IGROV-1 = tested on: IGROV-1
KM-20L2 = tested on: KM-20L2
KM12 = tested on: KM12
LOX IMVI = tested on: LOX IMVI
LXFL 529 = tested on: LXFL 529
M14 = tested on: M14
MCF7 = tested on: MCF7
MDA-MB-231 = tested on: MDA-MB-231
MDA-MB-435 = tested on: MDA-MB-435
MDA-N = tested on: MDA-N
Malme-3M = tested on: Malme-3M
NCI-H226 = tested on: NCI-H226
NCI-H23 = tested on: NCI-H23
NCI/ADR-RES = tested on: NCI/ADR-RES
OVCAR-3 = tested on: OVCAR-3
OVCAR-4 = tested on: OVCAR-4
OVCAR-5 = tested on: OVCAR-5
OVCAR-8 = tested on: OVCAR-8
PC-3 = tested on: PC-3
RPMI-8226 = tested on: RPMI-8226
RXF 393 = tested on: RXF 393
SF-539 = tested on: SF-539
SK-MEL-28 = tested on: SK-MEL-28
SK-MEL-5 = tested on: SK-MEL-5
SK-OV-3 = tested on: SK-OV-3
SN12C = tested on: SN12C
SNB-78 = tested on: SNB-78
SR = tested on: SR
SW-620 = tested on: SW-620
T47D = tested on: T47D
U-251 = tested on: U-251
UACC-257 = tested on: UACC-257
UACC-62 = tested on: UACC-62
UO-31 = tested on: UO-31
XF498 = tested on: XF498

O=C1C(CN2CCCCC2)CCCC1CN1CCCCC1 (centres undefined)
GI50 (786-0): 8.26 µM (inactive)
GI50 (A549): > 92 µM (inactive)
GI50 (ACHN): 18 µM (inactive)
GI50 (BT-549): 16.4 µM (inactive)
GI50 (DLD-1): 10.1 µM (inactive)
GI50 (DMS-273): 43.2 µM (inactive)
GI50 (DU-145): 17.8 µM (inactive)
GI50 (EKVX): 16.2 µM (inactive)
GI50 (HCC 2998): 51.3 µM (inactive)
GI50 (HCT-116): 15.4 µM (inactive)
GI50 (HCT-15): 18.3 µM
GI50 (HOP-18): 17.2 µM (inactive)
GI50 (HT-29): 20.1 µM (inactive)
GI50 (Hs-578T): 23.3 µM (inactive)
GI50 (IGROV-1): > 56.2 µM (inactive)
GI50 (KM-20L2): 14.4 µM (inactive)
GI50 (KM12): 37 µM (inactive)
GI50 (LOX IMVI): 16.9 µM (inactive)
GI50 (LXFL 529): 15 µM (inactive)
GI50 (M14): 20.7 µM (inactive)
GI50 (MCF7): 2.53 µM (inactive)
GI50 (MDA-MB-231): 18.5 µM (inactive)
GI50 (MDA-MB-435): 17 µM (inactive)
GI50 (MDA-N): 16 µM (inactive)
GI50 (Malme-3M): 8.07 µM (inactive)
GI50 (NCI-H226): > 52.2 µM (inactive)
GI50 (NCI-H23): 22.9 µM (inactive)
GI50 (NCI/ADR-RES): 18.5 µM (inactive)
GI50 (OVCAR-3): 18.6 µM (inactive)
GI50 (OVCAR-4): 14.4 µM (inactive)
GI50 (OVCAR-5): > 55.6 µM (inactive)
GI50 (OVCAR-8): 18.5 µM (inactive)
GI50 (PC-3): 16.1 µM (inactive)
GI50 (RPMI-8226): 2.24 µM (inactive)
GI50 (RXF 393): 16.3 µM (inactive)
GI50 (SF-539): 30.2 µM (inactive)
GI50 (SK-MEL-28): 17.4 µM (inactive)
GI50 (SK-MEL-5): 32.1 µM (inactive)
GI50 (SK-OV-3): > 100 µM (inactive)
GI50 (SN12C): 32.7 µM (inactive)
GI50 (SNB-78): 21.4 µM (inactive)
GI50 (SR): 15.3 µM (inactive)
GI50 (SW-620): 5.45 µM (inactive)
GI50 (T47D): 1.64 µM (inactive)
GI50 (U-251): > 100 µM (inactive)
GI50 (UACC-257): 17.2 µM (inactive)
GI50 (UACC-62): > 55.7 µM (inactive)
GI50 (UO-31): > 56.2 µM (inactive)
GI50 (XF498): 21.2 µM (inactive)
